Patent publication US9987282B2, “Small molecule inhibitors of influenza A RNA-dependent RNA polymerase” (Nant Holdings IP, LLC, priority 2011, dated 2018)

Key:
influenza A = type: cell-based
[1] = tested on: influenza A/Puerto Rico/8/34 (H1N1) virus; experiment: In vitro viral propagation in MDCK cells, read by chicken red blood cell hemagglutination assay; type: cell-based; settings: MDCK cells pre-incubated with compound; supernatants after 18-20 hour incubation
[2] = tested on: influenza A/WS/1933 (H1N1); experiment: In vitro viral propagation in MDCK cells, read by hemagglutination assay; type: cell-based; settings: in vitro infection
[3] = tested on: H3N2 serotype A/Aichi/2/68; experiment: as above; type: cell-based, influenza A/Aichi/2/68 (H3N2); settings: in vitro infection
[4] = tested on: cell death-activated reporter construct; experiment: Counter screen using a cell death-activated reporter construct (constitutive gene expression); settings: for observed toxicity or efficacy in antiviral and counterscreen assays: antiviral reporter assay and counterscreen, tested up to 50 uM
[5] = tested on: influenza A/Puerto Rico/8/34; experiment: In vivo survival study in infected Balb/C mice; settings: day 7 post-infection, 2×LD50 challenge
Protocol: In Vivo Survival Studies: Groups of 5 Balb/C mice ([…]) were weighed prior to the start of study and injected intravenously at the base of the tail with formulations containing A0435 at doses of 3.17, 1, or 0 mg/kg in phosphate buffered saline containing 3% w/v mouse serum albumin. Four hours later, these mice were challenged intranasally with 2×LD50 of influenza A/Puerto Rico/8/34 under anesthesia. Identical doses of A0435 were administered 24 and 48 hours after the initial dose administration and animal weights were monitored daily. Surviving animals were defined as those who maintained 70% or more of their starting weight.

[6] = tested on: primary renal proximal tubule epithelial cells (RPTEC)
[7] = tested on: liver-derived HepG2 cells
[8] = target: influenza A RNA-dependent RNA polymerase (RdRP) (Influenza A virus, UniProt P03428+P03431+P03433)

Compound	observed toxicity or efficacy in antiviral and counterscreen assays [4]	further results
CCc1c(C)nc2cc(-c3ccc(OC)c(OC)c3)nn2c1NCCc1ccccn1 [A0435]	–	cytopathic effects in infected cells (influenza A): little to no signs of the cytopathic effects; concentration showing significant antiviral activity (hemagglutination assay) [1]: > 4 µM; inhibition of virus [2]: significantly inhibited; inhibition of virus [3]: significantly inhibited; inhibitory impact on the level of constitutive gene expression in the counter-screen assay ([4]; dose titration): no visible inhibitory impact; animals surviving infection ([5]; 1 mg/kg intravenous): 2/5; animals surviving infection ([5]; 3.17 mg/kg intravenous): 3/5; tolerability in cells [6]: well-tolerated; tolerability in cells [7]: well-tolerated
CCc1c(C)nc2cc(-c3ccc(F)cc3)nn2c1NCCc1ccccn1 [A0436, 6-ethyl-2-(4-fluorophenyl)-5-methyl-N-(2-(pyridin-2-yl)ethyl)pyrazolo[1,5-a]pyrimidin-7-amine]	>10 uM (toxic to both antiviral and counterscreen at 50 uM)	–
Cc1ccc(-c2cc3nc4c(c(NCCc5ccccn5)n3n2)CCC4)cc1 [A0437, N-(2-(pyridin-2-yl)ethyl)-2-p-tolyl-6,7-dihydro-5H-cyclopenta[d]pyrazolo[1,5-a]pyrimidin-8-amine]	>50 µM (no observed toxicity or efficacy in either assay tested)	–
CCc1c(C)nc2cc(-c3ccc(OC)c(OC)c3)nn2c1NCCc1ccc(OC)c(OC)c1 [A0438, N-(3,4-dimethoxyphenethyl)-2-(3,4-dimethoxyphenyl)-6-ethyl-5-methylpyrazolo[1,5-a]pyrimidin-7-amine]	>10 uM (toxic to both antiviral and counterscreen at 50 uM)	–
CCc1c(C)nc2cc(-c3ccc(OC)c(OC)c3)nn2c1NCCc1ccccc1C [A0439]	–	concentration showing significant antiviral activity (hemagglutination assay) [1]: > 7.5 µM; toxicity in the reporter assay [8]: increased toxicity at higher doses due to precipitation
CCc1c(C)nc2cc(-c3ccc(OC)c(OC)c3)nn2c1NCCc1ccc(F)cc1 [A0440, 2-(3,4-dimethoxyphenyl)-6-ethyl-N-(4-fluorophenethyl)-5-methylpyrazolo[1,5-a]pyrimidin-7-amine]	>50 µM (no observed toxicity or efficacy in either assay tested)	–
Fc1ccc(-c2cc3nc4c(c(NCCc5ccccn5)n3n2)CCCC4)cc1 [A0441, 2-(4-fluorophenyl)-N-(2-(pyridin-2-yl)ethyl)-5,6,7,8-tetrahydropyrazolo[5,1-b]quinazolin-9-amine]	>10 uM (toxic to both antiviral and counterscreen at 50 uM)	–
Clc1ccc(-c2cc3nc4c(c(NCCc5ccccn5)n3n2)CCCC4)cc1 [A0442, 2-(4-chlorophenyl)-N-(2-(pyridin-2-yl)ethyl)-5,6,7,8-tetrahydropyrazolo[5,1-b]quinazolin-9-amine]	>10 uM (toxic to both antiviral and counterscreen at 50 uM)	–
COc1ccc(-c2cc3nc(C)c(C)c(N4CCCC4)n3n2)cc1OC [A0443, 2-(3,4-dimethoxyphenyl)-5,6-dimethyl-7-(pyrrolidin-1-yl)pyrazolo[1,5-a]pyrimidine]	>50 µM (no observed toxicity or efficacy in either assay tested)	–
COc1ccc(-c2cc3nc4c(c(NCCc5cccnc5)n3n2)CCC4)cc1OC [A0444, 2-(3,4-dimethoxyphenyl)-N-(2-(pyridin-3-yl)ethyl)-6,7-dihydro-5H-cyclopenta[d]pyrazolo[1,5-a]pyrimidin-8-amine]	>10 uM (toxic to both antiviral and counterscreen at 50 uM)	–
CCc1c(C)nc2cc(-c3cc(C)on3)nn2c1NCCc1ccccn1 [A0445, 6-ethyl-5-methyl-2-(5-methylisoxazol-3-yl)-N-(2-(pyridin-2-yl)ethyl)pyrazolo[1,5-a]pyrimidin-7-amine]	>50 µM (no observed toxicity or efficacy in either assay tested)	–
COc1cc(OC)cc(-c2cc3nc(C)cc(NCC(C)c4ccccc4)n3n2)c1 (centres unmarked) [A0525, 2-(3,5-dimethoxyphenyl)-5-methyl-N-(2-phenylpropyl)pyrazolo[1,5-a]pyrimidin-7-amine]	>50 µM (no observed toxicity or efficacy in either assay tested)	–
CCc1c(C)nc2cc(-c3ccc(OC)c(OC)c3)nn2c1NCc1cc(OC)ccc1OC [A0526, N-(2,5-dimethoxybenzyl)-2-(3,4-dimethoxyphenyl)-6-ethyl-5-methylpyrazolo[1,5-a]pyrimidin-7-amine]	>50 µM (no observed toxicity or efficacy in either assay tested)	–
CCc1c(C)nc2cc(-c3cc(OC)cc(OC)c3)nn2c1NCCc1ccccc1 [A0527, 2-(3,5-dimethoxyphenyl)-6-ethyl-5-methyl-N-phenethylpyrazolo[1,5-a]pyrimidin-7-amine]	>50 µM (no observed toxicity or efficacy in either assay tested)	–
COc1ccc(-c2cc3nc(-c4ccccc4)cc(NCc4ccccc4C)n3n2)cc1OC [A0528, 2-(3,4-dimethoxyphenyl)-N-(2-methylbenzyl)-5-phenylpyrazolo[1,5-a]pyrimidin-7-amine]	>50 µM (no observed toxicity or efficacy in either assay tested)	–
COc1ccc(-c2cc3nc4c(c(NCc5ccccc5F)n3n2)CCCC4)cc1 [A0529, N-(2-fluorobenzyl)-2-(4-methoxyphenyl)-5,6,7,8-tetrahydropyrazolo[5,1-b]quinazolin-9-amine]	>50 µM (no observed toxicity or efficacy in either assay tested)	–
COc1ccc(-c2cc3nc(C)cc(NCc4ccc5c(c4)OCO5)n3n2)cc1 [A0530, N-(benzo[d][1,3]dioxol-5-ylmethyl)-2-(4-methoxyphenyl)-5-methylpyrazolo[1,5-a]pyrimidin-7-amine]	>50 µM (no observed toxicity or efficacy in either assay tested)	–
Cc1cc(NC(CO)C(O)c2ccccc2)n2nc(-c3cccc(F)c3)cc2n1 (centres unmarked) [A0531, 2-(2-(3-fluorophenyl)-5-methylpyrazolo[1,5-a]pyrimidin-7-ylamino)-1-phenylpropane-1,3-diol]	>50 µM (no observed toxicity or efficacy in either assay tested)	–
Cc1cc(NCC(O)c2cccc(O)c2)n2nc(-c3cccc(F)c3)cc2n1 (centres unmarked) [A0532, 3-(2-(2-(3-fluorophenyl)-5-methylpyrazolo[1,5-a]pyrimidin-7-ylamino)-1-hydroxyethyl)phenol]	>50 µM (no observed toxicity or efficacy in either assay tested)	–
COc1ccc(-c2cc3nccc(NCc4ccccc4OC)n3n2)cc1 [A0547, N-(2-methoxybenzyl)-2-(4-methoxyphenyl)pyrazolo[1,5-a]pyrimidin-7-amine]	>50 µM (no observed toxicity or efficacy in either assay tested)	–
COc1ccc(-c2cc3nc(C)cc(NCc4ccccc4)n3n2)cc1 [A0548, N-benzyl-2-(4-methoxyphenyl)-5-methylpyrazolo[1,5-a]pyrimidin-7-amine]	>50 µM (no observed toxicity or efficacy in either assay tested)	–
COc1ccc(-c2c(C)nn3c(NCC(C)c4ccccc4)cc(C)nc23)cc1OC (centres unmarked) [A0549, 3-(3,4-dimethoxyphenyl)-2,5-dimethyl-N-(2-phenylpropyl)pyrazolo[1,5-a]pyrimidin-7-amine]	>50 µM (no observed toxicity or efficacy in either assay tested)	–
COc1ccc(-c2c(C)nn3c(N4CCc5ccccc5C4)cc(C)nc23)cc1OC [A0550, 2-(3-(3,4-dimethoxyphenyl)-2,5-dimethylpyrazolo[1,5-a]pyrimidin-7-yl)-1,2,3,4-tetrahydroisoquinoline]	>50 µM (no observed toxicity or efficacy in either assay tested)	–
COc1ccc(-c2cc3c(=O)[nH]nc(SCc4ccc5c(c4)OCO5)n3n2)cc1OC [A0551, 7-(benzo[d][1,3]dioxol-5-ylmethylthio)-2-(3,4-dimethoxyphenyl)pyrazolo [1,5-d][1,2,4]triazin-4(5H)-one]	>50 µM (no observed toxicity or efficacy in either assay tested)	–
CCOc1ccc(-c2cc3c(SCc4cccc(C)c4)nccn3n2)cc1 [A0552, 2-(4-ethoxyphenyl)-4-(3-methylbenzylthio)pyrazolo [1,5-a]pyrazine]	>50 µM (no observed toxicity or efficacy in either assay tested)	–
COc1ccc(-c2cc3c(=O)[nH]nc(SCc4ccccc4Cl)n3n2)cc1OC [A0553, 7-(2-chlorobenzylthio)-2-(3,4-dimethoxyphenyl)pyrazolo [1,5-d][1,2,4]triazin-4(5H)-one]	>50 µM (no observed toxicity or efficacy in either assay tested)	–
